Data on one compound can be found in patent US20140378502A1, “Par1 Inhibitors for Use in the Treatment or Prevention of Paramyxoviridae Infections” (Université Laval, priority 2011, published 2014).

In data set [1] the test system is hRSV strain 15 595. Put plainly: hRSV Balb/C mouse model, five-day treatment (experiment 4). The following applies: day 5 post hRSV infection, 500 μM, 5-day treatment, vs untreated and PAR-1 agonist treated mice. It is filed as in vivo. As for the experimental part:
The clinical hRSV A strain 15 959 that was passed nine times on Hep2 cells, was grown on Hep2 cells in MEM™ (Life Technologies) supplemented with 2% FBS (Wisent). Hep2 cells were infected with 10 TCID50/Hep2 cell of hRSV 15 959 and plated out into one flask (150 cm^2) until 60% cytopathic effects were observed. Infected monolayers and supernatants were recovered with a cell scraper and sonicated. The pooled preparation was centrifuged (1200 r.p.m., 10 min) to remove cellular debris. Supernatant was aliquoted and stored at −80° C. The same protocol was followed for a flask of uninfected cells for control mice.
hMPV viral titers were determined by 10-fold serial dilutions of virus in 24-well plates containing LLC-MK2 cells. […] Infected plates were incubated at 37° C. with 5% CO2 and replenished with 1 μl of fresh trypsin (0.0002%) every other day. hRSV viral titers were determined by 10-fold serial dilutions of virus in 24-well plates containing Hep2 cells. […] The presence of hRSV was detected by an immuno-staining assay using a monoclonal goat Anti-Respiratory Syncytial Virus primary antibody and a donkey anti-Goat IgG Secondary Antibody, HRP conjugate (both from Cederlane). […] TCID50 were calculated by the Reed and Muench method. […]
Differences in weight loss between groups was analysed by repeated measures two-way ANOVA. […]

Data set [2] in a line: Uninfected (sham infected) mice treated for 5 days, check for toxic and non specific effects. Type of data set: in vivo, BALB/c mice. The following applies: 500 μM. The procedure: In the second protocol, groups of 18 4-6-week-old BALB/c mice (Charles River Laboratories) were infected intranasally with 6-8×10^5 TCID50 hMPV strain C-85473 in 25 μl of OptiMEM™ supplemented with the PAR-1 agonist, PAR-1 antagonist or control peptide at a final concentration of 500 μM. As infected controls, groups of 18 4-6-week-old BALB/c mice (Charles River Laboratories) were infected intranasally with 6-8×10^5 TCID50 hMPV strain C-85473 in 25 μl of OptiMEM™ supplemented with H2O or DMSO. As uninfected control, groups 18 mice were sham infected with the concentrated supernatant of non-infected LLC-MK2 cells supplemented with the PAR-1 agonist, PAR-1 antagonist or control peptide at a final concentration of 500 μM or DMSO. On day 1 through 4 post infection, animals were treated with the PAR-1 agonist, PAR-1 antagonist or control peptide at a final concentration of 50 μM or 500 μM, or H2O or DMSO for control groups, resulting in a 5-day treatment in total. Animals were housed in groups of five and three in micro-isolator cages. The animals were evaluated on a daily basis for mortality, weight loss, and the presence of symptoms. On day 5 post-infection, lungs were removed from six mice per group for the evaluation of viral titres by cell culture and cytokine expression by Iuminex™. […]
(§1) 250 μL of lung homogenates (see section “Pulmonary viral titers”) were added to 250 μl 50 mM KPO4, pH 6.0 buffer containing 0.2% CHAPS {3-[(3-cholamidopropyl)-dimethylammonio]1-1-propanesulfonate} (Sigma) and 0.2% of a protease inhibitor cocktail (Sigma) and stored at −20° C. until the day of analysis. Samples were centrifuged at 13,800×g for 10 min at 4° C., and 50 μl of the supernatant was used for cytokine quantification. Levels of interleukin-4, IL-6, IL-12(p40), IL-12(p70), IFN-γ, KC, MCP-1, MIP-1α, RANTES were determined by the use of a 9-plex mouse bead kits (BioRad™/Millipore™) according to the manufacturer's instructions. Experiments were performed in a 96-well filter plate and results were analysed with the Luminex™ system (Qiagen™).

Data set [3] concerns hMPV strain C-85473. Description: hMPV-infected BALB/c mice, five-day pre-exposure prophylactic treatment regimen (experiment 2). The following applies: 500 μM, 5-day treatment. It is filed as in vivo. As for the experimental part:
hMPV viral titers were determined by 10-fold serial dilutions of virus in 24-well plates containing LLC-MK2 cells. Before infection, cells were washed twice with phosphate-buffered saline (PBS) to remove residual serum proteins that could inhibit trypsin activity. Infected plates were incubated at 37° C. with 5% CO2 and replenished with 1 μl of fresh trypsin (0.0002%) every other day. hRSV viral titers were determined by 10-fold serial dilutions of virus in 24-well plates containing Hep2 cells. Before infection, cells were washed twice with phosphate-buffered saline (PBS). Infected plates were incubated at 37° C. with 5% CO2. On day 4 post infection, plates were fixed with 80% acetone at −20° C. for 30 min, washed with PBS and air dried. The presence of hRSV was detected by an immuno-staining assay using a monoclonal goat Anti-Respiratory Syncytial Virus primary antibody and a donkey anti-Goat IgG Secondary Antibody, HRP conjugate (both from Cederlane). Virus titers were reported as 50% tissue culture infectious doses (TCID50) per ml, per mouse or per gram of lung. The lower limit of detection of the assay is 10^2 TCID50 per gram. TCID50 were calculated by the Reed and Muench method.
In the second protocol, groups of 18 4-6-week-old BALB/c mice (Charles River Laboratories) were infected intranasally with 6-8×10^5 TCID50 hMPV strain C-85473 in 25 μl of OptiMEM™ supplemented with the PAR-1 agonist, PAR-1 antagonist or control peptide at a final concentration of 500 μM. As infected controls, groups of 18 4-6-week-old BALB/c mice (Charles River Laboratories) were infected intranasally with 6-8×10^5 TCID50 hMPV strain C-85473 in 25 μl of OptiMEM™ supplemented with H2O or DMSO. As uninfected control, groups 18 mice were sham infected with the concentrated supernatant of non-infected LLC-MK2 cells supplemented with the PAR-1 agonist, PAR-1 antagonist or control peptide at a final concentration of 500 μM or DMSO. On day 1 through 4 post infection, animals were treated with the PAR-1 agonist, PAR-1 antagonist or control peptide at a final concentration of 50 μM or 500 μM, or H2O or DMSO for control groups, resulting in a 5-day treatment in total. Animals were housed in groups of five and three in micro-isolator cages. The animals were evaluated on a daily basis for mortality, weight loss, and the presence of symptoms. On day 5 post-infection, lungs were removed from six mice per group for the evaluation of viral titres by cell culture and cytokine expression by Iuminex™. Lungs of another six mice per group were removed for histopathological analysis.
On day 5 post infection, six animals per group were sacrificed, the lungs were removed and snap frozen in liquid nitrogen. Lungs were weighed, homogenized in 1 ml of PBS, centrifuged (2000 rpm, 10 min) and the supernatant was used to infect LLC-MK2 monolayers (in case of hMPV-infected mice) or Hep2 monolayer (in case of hRSV-infected mice) for virus titration as reported in the section “Viral titers”.
as §1
On day 5 post infection, 6 animals per group were sacrificed, and the lungs were collected at specified time points and fixed with 4% buffered formalin. […]

Take `CC(C)c1ccc(Cn2ccc3c4c(N)nc(NC5CC5)nc4ccc32)cc1` [PAR-1 antagonist, N3-cyclopropyl-7-{[4(I-methylethyl)phenyl]methyl)-7H-pyrrolo[3,2-f]quinazoline-I,3-diamine]: the lung viral titers entry in data set [1] is “significantly reduced viral titers”. For the same compound, the “weight loss or symptoms in uninfected mice” value in data set [2] is “In none of the uninfected groups significant weight loss or symptoms were observed”. The “pulmonary inflammation (histopathology)” value in data set [3] (day 5 post hMPV infection, infected treated vs infected untreated mice) was “no pulmonary inflammation was observed”. Also, in data set [3] (day 5 post infection, Luminex), the “pulmonary inflammatory cytokine/chemokine levels compared to all other groups of infected mice” value is “significant reduction in all of the evaluated inflammatory cytokine/chemokine levels”. Also, in data set [3] (day 5 post infection, vs other infected groups), the pulmonary viral titers result was “reduced pulmonary viral titers”. Besides, the “weight loss (and symptoms)” value in data set [3] (hMPV-infected mice, vs infected untreated mice) was “abolished all weight loss and symptoms”.
